Measured values from US4008274A, “Certain salicylanilides” (Yoshitomi Pharmaceutical Industries, Ltd., priority 1973, dated 1977).
≈ marks a conversion by molar mass, not a printed value.

What was measured:
barnacles = assay: Barnacle Killing Activity; assay type: in vivo; conditions: after 48 hours, out of 30 living barnacles, 20°±2° C
Procedure: Seawater (4 liters) was poured into a glass vessel (15 × 20 × 21 cm). The water temperature was maintained at 20°±2° C. Clean air was introduced at a rate of 150 ml/min throughout the experiment. Then 1 ml (or 5 ml) of a solution prepared by dissolving 0.400 g of the test compound in 100 ml of 4:1 ethanol-acetone mixture was dropped into the vessel to attain the concentration of 1 ppm (or 5 ppm). As the control run, 1 ml (or 5 ml) of the solvent was dropped into the vessel. Of scores of barnacles sticking to a stone obtained from the sea-shore 30 living barnacles were selected at randum, the rest of the barnacles on the stone being neglected for the experiment. Such stone was put in the vessel. After 48 hours, the number of dead barnacles was counted.

Percutaneous toxicity = conditions: mouse, in vivo, topical or ocular; dd-strain female mice, 10% solution in acetone on shaved backs
Procedure: Percutaneous LD50 values were determined in dd-strain female mice by applying a 10% solution of the test compound in acetone on the shaved backs.

[1] = Oral toxicity (Litchfield-Wilcoxon method); conditions: mouse, in vivo, dd-strain female mice, 25% suspension in water containing 0.5% carboxymethylcellulose
Procedure: Oral LD50 values were determined in dd-strain female mice according to the conventional Litchfield-Wilcoxon method. The test compound was administered as a 25% suspension in water containing 0.5% carboxymethylcellulose.

Spirogyra = assay: Algicidal Activity; assay type: in vivo; set-up: key: 0: Brown algae on the bottom of the vessel. Destroyed and brown spiral chloroplasts (under a microscope).; 10: Vigorous algae growth. Vivid green spiral chloroplasts (under a microscope); conditions: 48 hours, 20°±2° C
Procedure: Tap water (4 liters) was poured into a glass vessel (15 × 20 × 21 cm). The vessel was kept in a greenhouse maintained at 20°±2° C. Then 1 ml (or 5 ml) of a solution prepared by dissolving 0.400 g of the test compound in 100 ml of 4:1 ethanol-acetone mixture was dropped into the vessel to attain the concentration of 1 ppm (or 5 ppm). As the control run, 1 ml (or 5 ml) of the solvent was dropped into the vessel. About 5 g of wet Spirogyra was put in the vessel. Clean air was introduced at a rate of 150 ml/min for 48 hours.
The algicidal acticity was evaluated by the following criteria:
0: Brown algae on the bottom of the vessel. Destroyed and brown spiral chloroplasts (under a microscope).
10: Vigorous algae growth. Vivid green spiral chloroplasts (under a microscope).

[2] = tested on: Bacillus subtilis PCI 219; assay: Antibacterial Activity (agar dilution method), Bacillus subtilis PCI 219; assay type: cell-based; conditions: PCI219, 48 h; Bacillus subtilis PCI 219, nutrient agar, 37° C, 2 days; read-out: minimal inhibitory concentration (MIC)
Procedure: (§1) The minimal inhibitory concentration (MIC; mcg/ml) of the test compounds determined by the agar dilution method on the nutrient agar medium is shown in TABLE III. The procedure is as follows: The test compound was mixed with the nutrient agar medium and the medium was allowed to coagulate. A solution containing Staphylococcus aureus FDA 2099 or Bacillus subtilis PCI 219 was inoculated into the medium and cultivated at 37° C for 2 days.

[3] = tested on: Staphylococcus aureus FDA 2099; assay: Antibacterial Activity (agar dilution method), Staphylococcus aureus FDA 2099; assay type: cell-based; conditions: FDA2099, 48 h; Staphylococcus aureus FDA 2099, nutrient agar, 37° C, 2 days; read-out: minimal inhibitory concentration (MIC)
Procedure: as §1

Structure (SMILES) | number of dead barnacles (barnacles; 1 ppm) | number of dead barnacles (barnacles; 5 ppm) | LD50 (Percutaneous toxicity) [mg/kg] | LD50 [1] [mg/kg] | algicidal activity score (Spirogyra; 1 ppm) | algicidal activity score (Spirogyra; 5 ppm) | MIC [2] [µg/mL] | MIC [3] [µg/mL]
COc1cc([N+](=O)[O-])ccc1NC(=O)c1cc(C(C)(C)C)ccc1O [compound 15] | 9 | 30 | – | – | – | – | – | –
Cc1cc([N+](=O)[O-])ccc1NC(=O)c1cc(C(C)(C)C)ccc1O [Test Compound 10, 5-Tert-butyl-2'-methyl-4'-nitrosalicylanilide] | – | – | > 5000 | > 10000 | – | – | – | –
Cc1ccc(O)c(C(=O)Nc2ccc([N+](=O)[O-])c(C)c2)c1 [Test Compound 2, 3',5-Dimethyl-4'-nitrosalicylanilide] | 2 | 30 | – | – | 0 | 0 | – | –
Cc1cc([N+](=O)[O-])ccc1NC(=O)c1cc(C(C)(C)C)ccc1O [compound 10] | 30 | 30 | – | – | 0 | 0 | 0.5 (≈ 1.52 µM) | 1 (≈ 3.05 µM)
CSc1cccc(NC(=O)c2cc(C(C)(C)C)ccc2O)c1 [compound 14] | 3 | 30 | – | – | 10 | 0 | 5 (≈ 15.9 µM) | 5 (≈ 15.9 µM)
Cc1cc([N+](=O)[O-])ccc1NC(=O)c1cc(C(C)C)ccc1O [compound 7] | 14 | 30 | – | – | 0 | 0 | 5 (≈ 15.9 µM) | 5 (≈ 15.9 µM)
Cc1cccc(NC(=O)c2cc(C(C)(C)C)ccc2O)c1C [compound 16] | 4 | 30 | – | – | 10 | 0 | – | –
COc1cc([N+](=O)[O-])ccc1NC(=O)c1cc(C)ccc1O [compound 6] | 2 | 20 | – | – | – | – | – | –
Cc1ccc(O)c(C(=O)Nc2ccc([N+](=O)[O-])cc2)c1 [compound 4] | – | – | – | – | 10 | 0 | – | –
Cc1cc(NC(=O)c2cc(C(C)(C)C)ccc2O)ccc1[N+](=O)[O-] [compound 11] | 30 | 30 | – | – | 10 | 0 | 1 (≈ 3.05 µM) | 1 (≈ 3.05 µM)
Cc1ccc([N+](=O)[O-])cc1NC(=O)c1cc(C(C)C)ccc1O [compound 8] | 16 | 30 | – | – | 10 | 0 | 5 (≈ 15.9 µM) | 5 (≈ 15.9 µM)
CSc1cccc(NC(=O)c2cc(C)ccc2O)c1 [compound 5] | 2 | 18 | – | – | – | – | – | –
CC(C)(C)c1ccc(O)c(C(=O)Nc2ccc([N+](=O)[O-])cc2)c1 [compound 13] | 22 | 30 | – | – | – | – | 1 (≈ 3.18 µM) | 2 (≈ 6.36 µM)
COc1ccc(NC(=O)c2cc(C(C)(C)C)ccc2O)cc1 [compound 17] | – | – | – | – | 10 | 0 | – | –
Cc1ccc(O)c(C(=O)Nc2ccc([N+](=O)[O-])cc2C)c1 [Test Compound 1, 2',5-dimethyl-4'-nitrosalicylanilide] | 10 | 30 | – | – | 0 | 0 | 2 (≈ 6.99 µM) | 5 (≈ 17.5 µM)
CCC(C)(C)c1ccc(O)c(C(=O)Nc2ccc([N+](=O)[O-])c(C)c2)c1 [compound 19] | 2 | 30 | – | – | 0 | 0 | 0.5 (≈ 1.46 µM) | 0.5 (≈ 1.46 µM)
Cc1cccc(NC(=O)c2cc(C(C)(C)C)ccc2O)c1C [Test Compound 16, 5-Tert-butyl-2',3'-dimethylsalicylanilide] | – | – | > 5000 | > 10000 | – | – | – | –
CCC(C)(C)c1ccc(O)c(C(=O)Nc2cccc(SC)c2)c1 [compound 22] | – | – | – | – | 10 | 0 | – | –
CCC(C)(C)c1ccc(O)c(C(=O)Nc2ccc([N+](=O)[O-])cc2OC)c1 [compound 23] | 6 | 30 | – | – | 0 | 0 | 5 (≈ 14 µM) | 5 (≈ 14 µM)
CCC(C)(C)c1ccc(O)c(C(=O)Nc2cc([N+](=O)[O-])ccc2C)c1 [compound 20] | 30 | 30 | – | – | 0 | 0 | 1 (≈ 2.92 µM) | 1 (≈ 2.92 µM)
CCC(C)(C)c1ccc(O)c(C(=O)Nc2ccc([N+](=O)[O-])cc2C)c1 [compound 18] | 30 | 30 | – | – | 0 | 0 | 0.5 (≈ 1.46 µM) | 0.5 (≈ 1.46 µM)
Cc1ccc(O)c(C(=O)Nc2cc([N+](=O)[O-])ccc2C)c1 [compound 3] | 3 | 30 | – | – | – | – | 10 (≈ 34.9 µM) | 10 (≈ 34.9 µM)
Cc1ccc([N+](=O)[O-])cc1NC(=O)c1cc(C(C)(C)C)ccc1O [compound 12] | 30 | 30 | – | – | 10 | 0 | 2 (≈ 6.09 µM) | 2 (≈ 6.09 µM)
O=C(Nc1ccc(Br)cc1)c1cc(Br)cc(Br)c1O [Tribromsalan, 3,4',5-Tribromosalicylanilide, reference compound] | – | – | > 2000 | 124 | – | – | – | –
CC(C)c1ccc(O)c(C(=O)Nc2ccc([N+](=O)[O-])cc2)c1 [compound 9] | 20 | 30 | – | – | 0 | 0 | 5 (≈ 16.6 µM) | 5 (≈ 16.6 µM)
Cc1cc([N+](=O)[O-])ccc1NC(=O)c1cc(C(C)(C)CC(C)(C)C)ccc1O [compound 24] | – | – | – | – | – | – | 1 (≈ 2.6 µM) | 1 (≈ 2.6 µM)
CCC(C)(C)c1ccc(O)c(C(=O)Nc2ccc([N+](=O)[O-])cc2)c1 [compound 21] | 25 | 30 | – | – | 0 | 0 | 1 (≈ 3.05 µM) | 1 (≈ 3.05 µM)
